ChEMBL document CHEMBL1201862, “PubChem BioAssay data set” (2004)
Active and inactive are the calls of the source.

Key:
[1] = biological target: NAD-dependent protein deacylase sirtuin-5, mitochondrial (Homo sapiens, UniProt Q9NXA8); assay: SIRT5 desuccinylase inhibitors, dose response, biochemical, fluorescence imaging, cherry-pick, set 5 (AID 720591);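 further: desuccinylation of succinyl peptide AMC substrate read as fluorescence after trypsin release; potency of inhibitors that lower fluorescence and may act on trypsin instead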
Streptokinase A = biological target: T1, Streptokinase A (Streptococcus pyogenes serotype M1, UniProt P10520); assay: S. pyogenes streptokinase expression inhibitors, potency, dose response, plasminogen activation absorbance, OD405 (AID 1914); format: functional, Streptococcus pyogenes M1 GAS;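 further: secreted streptokinase activity via plasminogen activation per viability signal from cell pellet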
T1 sequence (P10520 whole entry): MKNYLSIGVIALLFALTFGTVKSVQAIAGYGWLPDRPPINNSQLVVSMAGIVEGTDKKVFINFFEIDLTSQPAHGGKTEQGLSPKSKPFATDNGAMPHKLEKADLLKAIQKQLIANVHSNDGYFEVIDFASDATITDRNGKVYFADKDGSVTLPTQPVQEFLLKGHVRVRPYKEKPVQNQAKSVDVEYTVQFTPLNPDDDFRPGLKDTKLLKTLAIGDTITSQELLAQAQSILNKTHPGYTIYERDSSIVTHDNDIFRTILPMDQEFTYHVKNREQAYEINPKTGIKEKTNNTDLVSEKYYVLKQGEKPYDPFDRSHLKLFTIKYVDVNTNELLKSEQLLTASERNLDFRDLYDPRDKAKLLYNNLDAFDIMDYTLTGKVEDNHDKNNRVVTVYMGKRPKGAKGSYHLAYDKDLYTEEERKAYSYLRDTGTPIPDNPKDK

[2] = system: Streptococcus sp. 'group A'; assay: growth inhibition of control SK(-) GAS strain, dose response, counter-screen for streptokinase expression inhibitor project, luminescence, kanamycin, BacTiterGlo, confirmation (AID 1900); format: functional, organism-based
[3] = Luminescence Cell-Based Dose Retest to Confirm Inhibitors of Cancer Stem Cells. [Related pubchem assays (depositor defined):AID2717, AID2721]; format: functional; details: Homo sapiens
[4] = biological target: Disintegrin and metalloproteinase domain-containing protein 17 (Homo sapiens, UniProt P78536); assay: ADAM17 protease inhibitors, dose response, counter-screen for ADAM10 exosite inhibitor project, biochemical, quenched FRET substrate (AID 743253)
[5] = growth suppression of beta-catenin-knockout colon cells, dose response, cell-based, HCT116, human colon tumor (AID 1045); format: functional;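 further: HCT116 colon tumor cells with beta catenin knocked out; cells exposed to compound for 60 hours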
INS1 = assay: beta cell apoptosis inhibitors, cytokine rescue, dose response, luminescence, retest (AID 449756); format: functional, cell-based; details: Rattus norvegicus;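 further: cell death triggered by IL-1 beta plus TNF-alpha plus IFN-gamma mixture; protective hits raise ATP signal compared with cytokine alone wells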
Streptococcus = assay: Group A Streptococcus viability loss, dose response, counter-screen for streptokinase expression inhibitor project, luminescence, BacTiterGlo (AID 1915); format: functional, organism-based;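 further: potency for reduction of bacterial viability or growth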
[6] = growth suppression of PTEN-null colon cells, dose response, cell-based, HCT116 PTEN knockout (AID 1047); format: functional;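 further: HCT116 colon tumor cells with PTEN knocked out; cells exposed to compound for 60 hours before readout; potency for loss of cell viability measured by luminescence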
H9c2 = assay: cells; format: functional, cell-based; details: Rattus norvegicus, H9c2, Myocardium;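 further: confirmatory concentration-response retest of ultra-high-throughput screening hits for modulation of myocardial damage; cell death induced by hydrogen peroxide oxidative stress; compound pretreatment for 60 min then peroxide exposure for 2 h; potency is for protecting the cells against peroxide damage rather than for killing them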
[7] = HEK293 Cytotoxicity Assay Measured in Cell-Based System Using Plate Reader - 7071-01_Inhibitor_Dose_CherryPick_Activity_Set2.; format: functional
HEK293 = assay: HEK293T cell cytotoxicity, dose response, cytotoxicity control, ATP luminescence, cherry-pick samples (AID 687005); format: functional, cell-based; details: Homo sapiens;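 further: cells exposed to compound for 48 hours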
[8] = cytotoxicity dependent on PAX8, dose response, cell-based, plate reader, dry powder (AID 743049); format: functional
[9] = PAX2 cell-based inhibition, dose response, selectivity assay for PAX8 inhibitor project, plate reader, dry powder samples (AID 743048); format: functional;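 further: HEK293 cells carrying a WT1 promoter luciferase reporter driven by expressed Pax2; potency is for inhibition of Pax2 driven reporter signal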
Paired box protein Pax-8 = Paired box protein Pax-8 (Homo sapiens, UniProt Q06710); assay: inhibitors of PAX8-driven TPO luciferase reporter, dose response, RMG-I cells, cherry-pick (AID 687027); format: functional, cell-based;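 further: luciferase reporter driven by Pax8 target thyroperoxidase promoter measured by SteadyGlo luminescence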
[10] = CTGF mRNA reduction under YAP1 overexpression, dose response, mechanism study for YAP1 pathway inhibitor project, DLD1 cells, RT-qPCR, cherry-pick (AID 1053127); format: functional, cell-based; details: DLD-1
[11] = P. falciparum Dd2 growth inhibitors, dose response, SYBR Green, cherry-picked samples (AID 1159567); format: functional, cell-based
[12] = inhibitors of HIV Env-driven cell fusion, dose response, cherry-pick (AID 652057); format: functional, cell-based
[13] = HepG2 cell cytotoxicity, dose response, cytotoxicity control, cherry-picked samples (AID 1159577); format: functional, cell-based
[14] = half-maximal inhibitory concentration for glucagon-like peptide-1 release, STC-1 cell line, dose-response (AID 1117345); format: functional, cell-based
[15] = Glucagon-like peptide 1 release potency, NCI-H716 cell line, dose-response, half-maximal inhibitory concentration (AID 1117344); format: functional, cell-based
[16] = YAP1 pathway inhibition via CTGF transcript levels, dose response, cell-based, DLD1 colon cancer, RT-qPCR, cherry-pick (AID 1053122); format: functional; details: Cancer cell lines
[17] = P. falciparum 3D7-ScDHODH growth inhibitors, dose response, SYBR Green, dry powder samples (AID 1159570); format: functional, cell-based;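 further: parasite growth measured after 72 hours of compound exposure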
[18] = P. falciparum Dd2 growth inhibitors, dose response, SYBR Green, dry powder samples (AID 1159566); format: functional, cell-based;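 further: potency for growth inhibition with lower SYBR green DNA signal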
[19] = P. falciparum ATP4 D1247Y mutant growth inhibitors, dose response, NITD609-resistant line, SYBR Green, dry powder (AID 1159571); format: functional, cell-based;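 further: parasites synchronized at ring stage by sorbitol before testing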
[20] = Plasmodium falciparum Dd2 Sybr green parasite growth Measured in Cell-Based and Microorganism Combination System Using Plate Reader - 2153-01_Inhibitor_Dose_DryPowder_Activity_Set3.; format: functional
[21] = HepG2 cell cytotoxicity, dose response, cytotoxicity control, plate reader, dry powder samples (AID 1159569); format: functional, cell-based;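 further: inhibitor potency with signal falling toward the positive control level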
[22] = Dose-response inhibition of insulin secretion in a rat insulinoma line at 5 mM glucose (AID 1117331); format: functional, cell-based; details: INS-1E

NAD-dependent protein deacylase sirtuin-5, mitochondrial, sequence (Q9NXA8 whole entry): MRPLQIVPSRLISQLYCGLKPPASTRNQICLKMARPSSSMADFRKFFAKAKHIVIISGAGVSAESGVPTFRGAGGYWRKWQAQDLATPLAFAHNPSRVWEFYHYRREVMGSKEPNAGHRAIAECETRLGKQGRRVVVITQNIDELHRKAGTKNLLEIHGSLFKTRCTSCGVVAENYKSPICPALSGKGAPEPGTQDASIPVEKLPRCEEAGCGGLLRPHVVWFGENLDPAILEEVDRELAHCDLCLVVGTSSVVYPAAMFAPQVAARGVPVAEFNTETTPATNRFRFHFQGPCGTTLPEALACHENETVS
Disintegrin and metalloproteinase domain-containing protein 17, sequence (P78536 whole entry, the tested form may be a part): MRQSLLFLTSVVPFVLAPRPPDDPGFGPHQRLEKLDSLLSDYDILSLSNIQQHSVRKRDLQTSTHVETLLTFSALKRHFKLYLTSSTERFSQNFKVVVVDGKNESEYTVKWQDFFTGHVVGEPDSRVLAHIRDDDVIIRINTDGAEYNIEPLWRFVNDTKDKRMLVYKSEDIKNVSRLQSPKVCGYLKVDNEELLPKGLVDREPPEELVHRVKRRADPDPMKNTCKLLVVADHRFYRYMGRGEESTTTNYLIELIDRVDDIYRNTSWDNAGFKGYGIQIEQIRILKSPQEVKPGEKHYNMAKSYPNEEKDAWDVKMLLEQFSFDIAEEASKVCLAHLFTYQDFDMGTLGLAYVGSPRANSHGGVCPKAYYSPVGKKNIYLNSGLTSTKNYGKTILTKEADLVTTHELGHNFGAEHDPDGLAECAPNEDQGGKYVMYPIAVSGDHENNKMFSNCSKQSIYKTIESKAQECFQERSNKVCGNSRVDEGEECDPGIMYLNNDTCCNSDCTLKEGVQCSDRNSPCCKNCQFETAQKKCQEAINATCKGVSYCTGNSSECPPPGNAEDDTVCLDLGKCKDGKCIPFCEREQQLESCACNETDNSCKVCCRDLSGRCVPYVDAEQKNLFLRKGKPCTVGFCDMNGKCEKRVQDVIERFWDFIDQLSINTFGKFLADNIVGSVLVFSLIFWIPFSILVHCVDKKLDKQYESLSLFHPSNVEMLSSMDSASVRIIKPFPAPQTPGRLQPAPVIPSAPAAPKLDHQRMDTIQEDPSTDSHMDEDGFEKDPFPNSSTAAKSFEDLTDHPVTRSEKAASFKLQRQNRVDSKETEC
Paired box protein Pax-8, sequence (Q06710 whole entry): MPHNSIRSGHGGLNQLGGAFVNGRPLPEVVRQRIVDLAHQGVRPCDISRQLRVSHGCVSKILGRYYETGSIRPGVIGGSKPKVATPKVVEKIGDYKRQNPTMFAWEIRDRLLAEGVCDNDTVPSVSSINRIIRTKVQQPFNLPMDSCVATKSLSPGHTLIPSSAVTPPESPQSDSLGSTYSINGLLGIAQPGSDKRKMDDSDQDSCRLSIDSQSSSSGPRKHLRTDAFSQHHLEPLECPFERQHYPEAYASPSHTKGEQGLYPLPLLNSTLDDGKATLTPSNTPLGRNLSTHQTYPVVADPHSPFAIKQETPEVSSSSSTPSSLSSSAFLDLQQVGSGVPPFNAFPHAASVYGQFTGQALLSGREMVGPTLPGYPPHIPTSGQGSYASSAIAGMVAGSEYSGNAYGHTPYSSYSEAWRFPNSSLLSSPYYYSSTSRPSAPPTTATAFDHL

With `COc1ccc(C(=O)NCC(=O)OCc2ccccc2F)cc1` the AC50 [1] was > 30 µM (inactive).
In the case of `Cc1ccc(NS(=O)(=O)c2ccc(Cl)c(NC(=S)NC(=O)C3CCCCC3)c2)cc1Cl`, the EC50 (Streptokinase A) is reported as 2.48 µM (active), the EC50 [2] is reported as 0.756 µM (active) and the AC50 [3] is reported as 3.05 µM (active). For the same molecule, the IC50 [4] was > 69.5 µM (inactive), the EC50 [5] was 20.8 µM (active) and the AC50 (INS1) was 10.2 µM (active). The EC50 (Streptococcus) was 4.65 µM (active) and the EC50 [6] was 19.8 µM (active).
For `COc1ccc(S(=O)(=O)N2CCOCC2)cc1NC(=O)c1cccc2c(=O)c(C)c(-c3ccccc3)oc12`, the AC50 [1] was > 30 µM (inactive) and the IC50 (H9c2) was > 79 µM (inactive).
In the case of `O=C(CN(c1ccc(F)cc1)S(=O)(=O)c1ccccc1)NC1CCCCCC1`, the AC50 [7] is reported as 33.4 µM (active) and the AC50 (HEK293) is reported as 33.4 µM (active).
In the case of `C[C@H](CO)N1C[C@H](C)[C@H](CN(C)C(=O)Nc2ccc(-c3cccs3)cc2)OCc2cnnn2CCCC1=O`, the AC50 [8] is reported as 11.5 µM (active), the AC50 [9] is reported as > 70 µM (inactive) and the AC50 (Paired box protein Pax-8) is reported as < 0.26 µM (active).
With `CCNC(=O)c1cc2c(c(-c3cccc(-c4ccccc4F)c3)n1)[C@@H](CCO)N(C(=O)CC1CC1)C2` the AC50 [10] was 11 µM (active) and the AC50 [11] was 5.87 µM (active).
With `COc1ccc2c3c(n(C)c2c1)[C@@H](CO)N(C(=O)C1CCOCC1)CC31CCN(Cc2cccc(F)c2)CC1` the AC50 [12] was 0.629 µM (active), the AC50 [13] was 10.8 µM (active) and the AC50 [11] was 6.52 µM (active).
In the case of `C[C@H]1CCCCO[C@H](CN(C)S(=O)(=O)c2ccc(Cl)cc2)[C@@H](C)CN([C@@H](C)CO)C(=O)c2cc(NS(=O)(=O)c3cccs3)ccc2O1`, the AC50 [7] is reported as 15.6 µM (active) and the AC50 (HEK293) is reported as 15.6 µM (active).
For `CN[C@@H]1[C@H](O)[C@H](NC)[C@H]2O[C@@]3(O)C(=O)C[C@@H](C)O[C@H]3O[C@@H]2[C@H]1O`, the IC50 [14] was > 40 µM (inactive) and the IC50 [15] was > 40 µM (inactive).
For `COc1ccccc1NC(=O)N1CCCCN2[C@H](CO)[C@H](c3ccc(-c4cccc(C#N)c4)cc3)[C@@H]2C1`, the AC50 [10] was 11.6 µM (active) and the AC50 [16] was 1.44 µM (active).
In the case of `COc1ccccc1C#Cc1ccc([C@H]2[C@@H](CO)N(C(=O)C3CC3)[C@H]2C#N)cc1`, the AC50 [17] is reported as 2.22 µM (active), the AC50 [18] is reported as 0.457 µM (active) and the AC50 [19] is reported as 1.09 µM (active). For the same molecule, the AC50 [20] was 2.28 µM (active) and the AC50 [21] was > 100 µM (inactive).
With `N#C[C@@H]1[C@H](c2ccc(-c3cccc(F)c3)cc2)[C@@H](CO)N1C(=O)NC1CCCC1` the AC50 [17] was 13 µM (active), the AC50 [18] was 0.117 µM (active) and the AC50 [19] was 0.239 µM (active). For the same molecule, the AC50 [11] was 0.483 µM (active), the AC50 [20] was 0.326 µM (active) and the AC50 [21] was > 100 µM (inactive).
With `O=C(Nc1ccc(F)cc1)N1C[C@H]2[C@@H](c3ccccc31)[C@H](CO)N2C(=O)c1ccccc1F` the AC50 [13] was > 39 µM (inactive) and the AC50 [11] was 4.75 µM (active).
In the case of `COc1ccc(CN(CCN(C)C)c2ccccn2)cc1` [PYRILAMINE], the IC50 [22] is reported as 15.4 µM (inactive).
